Assay results as given in patent US12495798B2, “Nicotinamide compound and herbicidal composition comprising compound” (KOREA RESEARCH INSTITUTE OF CHEMICAL TECHNOLOGY, priority 2019, dated 2025).

How the values were obtained:
Format in all cases: in vivo
sorghum [1] = assay: Herbicidal activity test against upland field weeds (foliar treatment test); details: Sorghum, 50 g ai/ha, scale 0-100
How it was run: (§1)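 Greenhouse-grown plants (30±5 °C, 14/10 h light/dark) foliar hand-sprayed with compound in 50% acetone, 0.1% Tween-20 at 50 or 75 g a.i./ha. Control visually scored 0 (none) to 100 (complete) versus untreated after 14 days, or 21 days if needed.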

indian jointvetch = assay: as above; parameters: key to Foliar treatment herbicidal activity, Indian jointvetch: 0 (no control); 100 (complete control); details: 50 g ai/ha, scale 0-100
How it was run: as §1

sorghum [2] = assay: Herbicidal activity test against upland field weeds (soil treatment test); parameters: key to Soil treatment herbicidal activity, Sorghum: 0 (no control); 100 (complete control); details: 50 g ai/ha, scale 0 (no control) to 100 (complete control)
How it was run: (§2)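 Pre-emergence soil surface spray, day after sowing, into sandy loam pots with fertilizer; compounds at 50 or 75 g a.i./ha in 50% acetone, 0.1% Tween-20. Greenhouse at 30±5 °C, 14/10 h light/dark; visual control rated 0–100 against untreated after 14 days (21 if needed).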

velvetleaf = assay: Herbicidal activity test against upland field weeds (foliar treatment test); parameters: key to Foliar treatment herbicidal activity, velvet leaf: 0 (no control); 100 (complete control); details: 50 g ai/ha; for pest or weed control at 50 g/ha: Abutilon theophrasti, scale 0-100, read-out: Foliar treatment herbicidal activity, velvet leaf
How it was run: as §1

quack grass = assay: Herbicidal activity test against upland field weeds (soil treatment test); parameters: key to Soil treatment herbicidal activity, quack grass: 0 (no control); 100 (complete control); details: 50 g ai/ha, scale 0 (no control) to 100 (complete control)
How it was run: as §2

corn = assay: Phytotoxicity test for field crops (soil treatment test); parameters: key: 0 (no harm); 9 (complete withered)
How it was run: (§3)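 Each value is a 0–9 visual phytotoxicity grade from greenhouse pots (30±5° C, 14 h light/10 h dark). Sterilized soil of pH 6.1 was sprayed one day after sowing with 19˜300 g a.i./ha in 33% acetone containing 0.1% Tween-20, and injury was assessed at 10 and 20 days.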

cotton = assay: as above; parameters: key: 0 (no harm); 9 (complete withered)
How it was run: as §3

rice = assay: as above; parameters: key: 0 (no harm); 9 (complete withered)
How it was run: as §3

soybean = assay: as above; parameters: key: 0 (no harm); 9 (complete withered)
How it was run: as §3

wheat = assay: as above; parameters: key: 0 (no harm); 9 (complete withered)
How it was run: as §3

barnyard grass = assay: Herbicidal activity test against upland field weeds (soil treatment test); parameters: key to Soil treatment herbicidal activity, barnyard grass: 0 (no control); 100 (complete control); details: 50 g ai/ha, scale 0 (no control) to 100 (complete control); for pest or weed control at 50 g/ha: Echinochloa crus-galli
How it was run: as §2

crabgrass [3] = assay: Herbicidal activity test against upland field weeds (foliar treatment test); details: Digitaria sanguinalis, 50 g ai/ha, scale 0-100
How it was run: as §1

crabgrass [4] = assay: Herbicidal activity test against upland field weeds (soil treatment test); parameters: key to Soil treatment herbicidal activity, Crabgrass: 0 (no control); 100 (complete control); details: 50 g ai/ha, scale 0 (no control) to 100 (complete control); for pest or weed control at 50 g/ha: Digitaria sanguinalis
How it was run: as §2

fall panicum = assay: as above; parameters: key to Soil treatment herbicidal activity, Fall panicum: 0 (no control); 100 (complete control); details: 50 g ai/ha, scale 0 (no control) to 100 (complete control); for pest or weed control at 50 g/ha: Panicum dichotomiflorum
How it was run: as §2

[5] = 50 g ai/ha, Corn (10 days after treatment)
[6] = 50 g ai/ha, Corn (20 days after treatment)
[7] = 100 g ai/ha, Corn (10 days after treatment)
[8] = 100 g ai/ha, Corn (20 days after treatment)
[9] = 50 g ai/ha, Cotton (10 days after treatment)
[10] = 50 g ai/ha, Cotton (20 days after treatment)
[11] = 100 g ai/ha, Cotton (10 days after treatment)
[12] = 100 g ai/ha, Cotton (20 days after treatment)
[13] = 50 g ai/ha, Rice (10 days after treatment)
[14] = 50 g ai/ha, Rice (20 days after treatment)
[15] = 100 g ai/ha, Rice (10 days after treatment)
[16] = 100 g ai/ha, Rice (20 days after treatment)
[17] = 50 g ai/ha, Soybean (10 days after treatment)
[18] = 50 g ai/ha, Soybean (20 days after treatment)
[19] = 100 g ai/ha, Soybean (10 days after treatment)
[20] = 100 g ai/ha, Soybean (20 days after treatment)
[21] = 50 g ai/ha, Wheat (10 days after treatment)
[22] = 50 g ai/ha, Wheat (20 days after treatment)
[23] = 100 g ai/ha, Wheat (10 days after treatment)
[24] = 100 g ai/ha, Wheat (20 days after treatment)

Row | Structure (SMILES) | plant injury at 50 g/ha (sorghum [1]) | Soil treatment herbicidal activity, Sorghum (sorghum [2]) | Soil treatment herbicidal activity, quack grass (quack grass) | Soil treatment phytotoxicity, Corn (corn; [5]) | Soil treatment phytotoxicity, Corn (corn; [6]) | Soil treatment phytotoxicity, Corn (corn; [7]) | Soil treatment phytotoxicity, Corn (corn; [8]) | Soil treatment phytotoxicity, Cotton (cotton; [9]) | Soil treatment phytotoxicity, Cotton (cotton; [10]) | Soil treatment phytotoxicity, Cotton (cotton; [11]) | Soil treatment phytotoxicity, Cotton (cotton; [12]) | Soil treatment phytotoxicity, Rice (rice; [13]) | Soil treatment phytotoxicity, Rice (rice; [14]) | Soil treatment phytotoxicity, Rice (rice; [15]) | Soil treatment phytotoxicity, Rice (rice; [16]) | Soil treatment phytotoxicity, Soybean (soybean; [17]) | Soil treatment phytotoxicity, Soybean (soybean; [19]) | Soil treatment phytotoxicity, Soybean (soybean; [20]) | Soil treatment phytotoxicity, Wheat (wheat; [21]) | Soil treatment phytotoxicity, Wheat (wheat; [23]) | other results
1 | Cn1nnnc1COc1nc(C(F)(F)F)ccc1C(=S)Nc1nnnn1C [Compound No. 1-43, N-(1-methyl-1H-tetrazol-5-yl)-2-((1-methyl-1H-tetrazol-5-yl)methoxy)-6-(trifluoromethyl)pyridin-3-carbothioamide] | 60% | 0 | 0 | 0 | 0 | 1 | 0 | 0 | 1 | 1 | 2 | 5 | 5 | 7 | 9 | 0 | 0 | 0 | 0 | 3 | pest or weed control at 50 g/ha (indian jointvetch): 30%; pest or weed control at 50 g/ha (velvetleaf): 90%; Soil treatment phytotoxicity, Soybean (soybean; [18]): 0; Soil treatment phytotoxicity, Wheat (wheat; [22]): 0; Soil treatment phytotoxicity, Wheat (wheat; [24]): 3; Soil treatment herbicidal activity, barnyard grass (barnyard grass): 0; pest or weed control at 50 g/ha (crabgrass [3]): 95%; pest or weed control at 50 g/ha (crabgrass [4]): 20%; Soil treatment herbicidal activity, Fall panicum (fall panicum): 0
2 | Cn1ncnc1COc1nc(C(F)(F)F)ccc1C(=O)Nc1nnnn1C [Compound No. 1-45, 2-((1-methyl-1H-1,2,4-triazol-5-yl)methoxy)-N-(1-methyl-1H-tetrazol-5-yl)-6-(trifluoromethyl)nicotinamide] | 50% | 0 | 0 | 0 | 0 | 1 | 0 | 1 | 4 | 3 | 5 | 9 | 9 | 9 | 9 | 0 | 0 | 0 | 0 | 0 | pest or weed control at 50 g/ha (indian jointvetch): 70%; pest or weed control at 50 g/ha (velvetleaf): 80%; Soil treatment phytotoxicity, Soybean (soybean; [18]): 0; Soil treatment phytotoxicity, Wheat (wheat; [22]): 0; Soil treatment phytotoxicity, Wheat (wheat; [24]): 0; pest or weed control at 50 g/ha (barnyard grass): 98%; pest or weed control at 50 g/ha (crabgrass [3]): 95%; Soil treatment herbicidal activity, Crabgrass (crabgrass [4]): 100; pest or weed control at 50 g/ha (fall panicum): 98%
3 | Cn1nnnc1COCc1nc(C(F)(F)F)ccc1C(=O)Nc1nnnn1C [Compound No. 1-61, N-(1-methyl-1H-tetrazol-5-yl)-2-(((1-methyl-1H-tetrazol-5-yl)methoxy)methyl)-6-(trifluoromethyl)nicotinamide] | 20% | 0 | 0 | 0 | 0 | 0 | 0 | 1 | 1 | 2 | 2 | 0 | 1 | 1 | 6 | 0 | 3 | 6 | 0 | 0 | Foliar treatment herbicidal activity, Indian jointvetch (indian jointvetch): 100; Foliar treatment herbicidal activity, velvet leaf (velvetleaf; scale 0-100): 100; Soil treatment phytotoxicity, Wheat (wheat; [22]): 0; Soil treatment phytotoxicity, Wheat (wheat; [24]): 0; pest or weed control at 50 g/ha (barnyard grass): 20%; pest or weed control at 50 g/ha (crabgrass [3]): 95%; pest or weed control at 50 g/ha (crabgrass [4]): 40%; pest or weed control at 50 g/ha (fall panicum): 95%
4 | Cn1ncnc1COCc1nc(C(F)(F)F)ccc1C(=O)Nc1nnnn1C [Compound No. 1-102, 2-(((1-methyl-1H-1,2,4-triazol-5-yl)methoxy)methyl)-N-(1-methyl-1H-tetrazol-5-yl)-6-(trifluoromethyl)nicotinamide] | 50% | 0 | 0 | 0 | 0 | 0 | 0 | 0 | 0 | 1 | 2 | 5 | 5 | 5 | 6 | 0 | 0 | 0 | 0 | 0 | pest or weed control at 50 g/ha (indian jointvetch): 80%; pest or weed control at 50 g/ha (velvetleaf): 80%; Soil treatment phytotoxicity, Soybean (soybean; [18]): 0; Soil treatment phytotoxicity, Wheat (wheat; [24]): 0; pest or weed control at 50 g/ha (barnyard grass): 20%; pest or weed control at 50 g/ha (crabgrass [3]): 70%; pest or weed control at 50 g/ha (crabgrass [4]): 20%; pest or weed control at 50 g/ha (fall panicum): 70%
